Assay results from patent US20030008847A1, “Treatment of diabetes and related pathologies” (Medicure, Inc., priority 1999, published 2003).

Legend:
[1] = system: rats induced with Type I diabetes; experiment: Type I diabetes in rats induced with streptozotocin; glucose and insulin levels; type: in vivo, Male Sprague-Dawley rats; settings: compared to diabetic group, Insulin 1 unit and 3 unit, P-5-P 25 mg/kg daily; for plasma glucose levels: FIG. 1; for plasma insulin levels: FIG. 2
Procedure: Male Sprague-Dawley (Charles River Laboratories, Montreal, Canada) rats weighing approximately 200 g are randomly separated into control and experimental groups. All experimental animals are given an intravenous injection of 0.1 M citrate buffered streptozotocin (pH 4.5) at a dosage of 65 mg/kg of body weight to induce diabetes mellitus. All control animals receive an intravenous injection of 0.1 M citrate buffer (pH 4.5) alone. One experimental group of rats also receives daily doses of pyridoxal-5′-phosphate (25 mg/kg body weight) (Aldrich Canada Ltd., Ontario, Canada). A second experimental group receives daily subcutanteous injections of Humulin® N (3 units per day) (insulin isophene, human biosynthetic; Eli Lilly and Co., Indianapolis, Ind.). A third experimental group receives both daily subcutaneous injections of Humulin® N (3 units per day) and a daily dose of pyridoxal-5′-phosphate (25 mg/kg body weight). […] […] All animals are fed rat chow and water ad libitum. Plasma glucose levels were done using the Infinity Glucose Reagent® (Sigma Diagnostics, St. Louis, Mo.).

[2] = system: rats induced with Type II diabetes; experiment: Type II diabetes in rats induced by sucrose feeding; plasma glucose, plasma insulin, systolic blood pressure; type: in vivo, Male Sprague-Dawley rats; settings: P-5-P 25 mg/kg orally/day; for plasma glucose levels: FIG. 3; for plasma glucose levels / plasma insulin levels: compared to diabetic group, tolbutamide 40 and 20 mg/kg, 16 weeks; for plasma insulin levels: FIG. 4
Procedure: To determine the effect of a compound suitable for use in methods of the invention on glucose and insulin levels, as well as increases in systolic blood pressure, rats having type II diabetes are administered pyridoxal-5'-phosphate, either alone or in combination with sucrose and/or tolbutamide, and their systolic blood pressure, urine and blood glucose and insulin levels are determined. […] et al: Isr J Med Sci; 33:153-159. […] et al: Isr J Med Sci; 33:153-159, a high sucrose or fructose diet for a prolonged period is one technique used to induce Type II diabetes, specifically hypertension associated with hyperglycemia and hyperinsulinemia in animals. Male Sprague-Dawley (Charles River Laboratories, Montreal, Canada) rats weighing approximately 200 g are randomly separated into the following groups with each group having 5 amimals: a) The control group that was fed a normal diet and provided with drinking water b) The sucrose group that was fed 35% sucrose (35 gm sucrose/100 ml of drinking water/day) with an average intake of 150 ml/rat/day c) The sucrose+[…] group that was fed sucrose as stated in b above and 25 mg/kg orally/day of […] g) The sucrose+tolbutamide group that was fed sucrose as stated in b above and 20 mg/kg orally/day of tolbutamide. Total duration of the study was 16 weeks. Plasma insulin levels were measured using Rat Insulin RIA Kit (Linco Research Inc., St. Charles, Mo.). Plasma glucose levels were done using the Infinity Glucose Reagent® (Sigma Diagnostics, St. Louis, Mo.).

Compound | plasma glucose levels [1] | plasma insulin levels [1] | plasma glucose levels [2] | plasma insulin levels [2] | rise in systolic blood pressure ([2]; FIG. 5, tail cuff, compared to diabetic and tolbutamide treatment groups)
Cc1ncc(COP(=O)(O)O)c(C=O)c1O [Example P-5-P, pyridoxal-5′-phosphate] | significantly reduced | significantly increased | significantly decreased | significantly decreased | significantly decreased
CCCCNC(=O)NS(=O)(=O)c1ccc(C)cc1 [tolbutamide, reference compound] |  |  | significantly decreased | significantly decreased | 
Insulin: Humulin® N (insulin isophene, human biosynthetic; Eli Lilly and Co.) | significantly reduced | significantly increased |  |  | 
